Measured values: the NIST ThermoML archive (doi:10.1016/j.jct.2016.07.005)
Numbers after ± are expanded uncertainties.

Columns and labels:
[1] = 100 kPa, Liquid; for viscosity: Concentric cylinders viscometry; for mass density: Vibrating tube method
[2] = refractive index (Na D-line) (dimensionless); details: 100 kPa, Liquid, Standard Abbe refractometry
[3] = xn = mol fraction of the nth substance listed; details: 100 kPa, Liquid, x2 = 0; for viscosity: Concentric cylinders viscometry; for mass density: Vibrating tube method
[4] = refractive index (Na D-line) (dimensionless); xn = mol fraction of the nth substance listed; details: 100 kPa, Liquid, Standard Abbe refractometry, x2 = 0

CC(O)CO (centres undefined) [1,2-propanediol]
Details	mass density, [1] [kg/m3]	refractive index, [2]	viscosity, [1] [mPa·s]
293.15 K	1036.3 ± 1	1.43279 ± 0.00036	59.56 ± 1.2
298.15 K	1032.62 ± 1	1.43111 ± 0.00036	44.14 ± 0.9
303.15 K	1028.91 ± 1	1.42941 ± 0.00036	33.25 ± 0.68
308.15 K	1025.16 ± 1	1.42773 ± 0.00036	25.5 ± 0.52
313.15 K	1021.39 ± 1	1.42601 ± 0.00036	19.78 ± 0.4
318.15 K	1017.57 ± 1	1.42429 ± 0.00036	15.76 ± 0.32
323.15 K	1013.72 ± 1	1.42257 ± 0.00036	12.75 ± 0.26

CC(O)CO (centres undefined) [1,2-propanediol] + CN1CCC[C@H]1c1cccnc1
Details	mass density, [3] [kg/m3]	refractive index, [4]	viscosity, [3] [mPa·s]
293.15 K	1036.3 ± 1	1.43279 ± 0.00036	59.56 ± 1.2
298.15 K	1032.62 ± 1	1.43111 ± 0.00036	44.14 ± 0.9
303.15 K	1028.91 ± 1	1.42941 ± 0.00036	33.25 ± 0.68
308.15 K	1025.16 ± 1	1.42773 ± 0.00036	25.5 ± 0.52
313.15 K	1021.39 ± 1	1.42601 ± 0.00036	19.78 ± 0.4
318.15 K	1017.57 ± 1	1.42429 ± 0.00036	15.76 ± 0.32
323.15 K	1013.72 ± 1	1.42257 ± 0.00036	12.75 ± 0.26

CN1CCC[C@H]1c1cccnc1 [(-)-3-(N-methylpyrrolidino)pyridine]
Details	mass density, [1] [kg/m3]	refractive index, [2]	viscosity, [1] [mPa·s]
293.15 K	1010.23 ± 1	1.52665 ± 0.0004	4.694 ± 0.098
298.15 K	1006.16 ± 1	1.52439 ± 0.0004	4.048 ± 0.085
303.15 K	1002.1 ± 1	1.52214 ± 0.0004	3.518 ± 0.074
308.15 K	998.055 ± 1	1.51988 ± 0.0004	3.088 ± 0.065
313.15 K	994.014 ± 1	1.5179 ± 0.0004	2.758 ± 0.058
318.15 K	989.984 ± 1	1.51592 ± 0.0004	2.411 ± 0.051
323.15 K	985.962 ± 1	1.51373 ± 0.0004	2.195 ± 0.046

CCCCO [butan-1-ol]
Details	mass density, [1] [kg/m3]	refractive index, [2]	viscosity, [1] [mPa·s]
293.15 K	809.819 ± 1	1.39922 ± 0.00036	2.914 ± 0.06
298.15 K	805.995 ± 1	1.39719 ± 0.00036	2.564 ± 0.053
303.15 K	802.148 ± 1	1.39517 ± 0.00036	2.258 ± 0.047
308.15 K	798.276 ± 1	1.39311 ± 0.00036	1.994 ± 0.041
313.15 K	794.372 ± 1	1.39102 ± 0.00036	1.777 ± 0.037
318.15 K	790.429 ± 1	1.38896 ± 0.00036	1.589 ± 0.033
323.15 K	786.444 ± 1	1.38688 ± 0.00036	1.372 ± 0.029

CCCCO [butan-1-ol] + CN1CCC[C@H]1c1cccnc1
Details	mass density, [3] [kg/m3]	refractive index, [4]	viscosity, [3] [mPa·s]
293.15 K	809.819 ± 1	1.39922 ± 0.00036	2.914 ± 0.06
298.15 K	805.995 ± 1	1.39719 ± 0.00036	2.564 ± 0.053
303.15 K	802.148 ± 1	1.39517 ± 0.00036	2.258 ± 0.047
308.15 K	798.276 ± 1	1.39311 ± 0.00036	1.994 ± 0.041
313.15 K	794.372 ± 1	1.39102 ± 0.00036	1.777 ± 0.037
318.15 K	790.429 ± 1	1.38896 ± 0.00036	1.589 ± 0.033
323.15 K	786.444 ± 1	1.38688 ± 0.00036	1.372 ± 0.029

CCC(C)O (centres undefined) [butan-2-ol]
Details	mass density, [1] [kg/m3]	refractive index, [2]	viscosity, [1] [mPa·s]
293.15 K	807.19 ± 1	1.39715 ± 0.00036	3.76 ± 0.077
298.15 K	803.049 ± 1	1.39497 ± 0.00036	3.093 ± 0.064
303.15 K	798.829 ± 1	1.39274 ± 0.00036	2.566 ± 0.053
308.15 K	794.525 ± 1	1.39045 ± 0.00036	2.149 ± 0.044
313.15 K	790.127 ± 1	1.38803 ± 0.00036	1.816 ± 0.038
318.15 K	785.636 ± 1	1.38571 ± 0.00036	1.548 ± 0.032
323.15 K	781.043 ± 1	1.38322 ± 0.00036	1.332 ± 0.028

CCC(C)O (centres undefined) [butan-2-ol] + CN1CCC[C@H]1c1cccnc1
Details	mass density, [3] [kg/m3]	refractive index, [4]	viscosity, [3] [mPa·s]
293.15 K	807.19 ± 1	1.39715 ± 0.00036	3.76 ± 0.077
298.15 K	803.049 ± 1	1.39497 ± 0.00036	3.093 ± 0.064
303.15 K	798.829 ± 1	1.39274 ± 0.00036	2.566 ± 0.053
308.15 K	794.525 ± 1	1.39045 ± 0.00036	2.149 ± 0.044
313.15 K	790.127 ± 1	1.38803 ± 0.00036	1.816 ± 0.038
318.15 K	785.636 ± 1	1.38571 ± 0.00036	1.548 ± 0.032
323.15 K	781.043 ± 1	1.38322 ± 0.00036	1.332 ± 0.028

OCCCO [propan-1,3-diol]
Details	mass density, [1] [kg/m3]	refractive index, [2]	viscosity, [1] [mPa·s]
293.15 K	1053.03 ± 1.3	1.43918 ± 0.00053	52.31 ± 1.2
298.15 K	1049.9 ± 1.3	1.43783 ± 0.00053	41.55 ± 0.94
303.15 K	1046.77 ± 1.3	1.43648 ± 0.00053	33.22 ± 0.75
308.15 K	1043.63 ± 1.3	1.43515 ± 0.00053	26.87 ± 0.61
313.15 K	1040.49 ± 1.3	1.43382 ± 0.00053	21.85 ± 0.49
318.15 K	1037.33 ± 1.3	1.4324 ± 0.00053	18.12 ± 0.41
323.15 K	1034.16 ± 1.3	1.43101 ± 0.00053	15.21 ± 0.34

OCCCO [propan-1,3-diol] + CN1CCC[C@H]1c1cccnc1
Details	mass density, [3] [kg/m3]	refractive index, [4]	viscosity, [3] [mPa·s]
293.15 K	1053.03 ± 1.3	1.43918 ± 0.00053	52.31 ± 1.2
298.15 K	1049.9 ± 1.3	1.43783 ± 0.00053	41.55 ± 0.94
303.15 K	1046.77 ± 1.3	1.43648 ± 0.00053	33.22 ± 0.75
308.15 K	1043.63 ± 1.3	1.43515 ± 0.00053	26.87 ± 0.61
313.15 K	1040.49 ± 1.3	1.43382 ± 0.00053	21.85 ± 0.49
318.15 K	1037.33 ± 1.3	1.4324 ± 0.00053	18.12 ± 0.41
323.15 K	1034.16 ± 1.3	1.43101 ± 0.00053	15.21 ± 0.34
